Source: ChEMBL document CHEMBL5390227, “Development of QTMP: A promising anticancer agent through NP-Privileged Motif-Driven structural modulation” (Bioorg Med Chem, 2023)
Activity calls are given as the source filed them. No cut-off for these calls is given here.

Key:
[1] = system: HeLa; assay: Antiproliferative activity against human HeLa cells assessed as inhibition of cell growth at 25 nM measured after 24 hrs by SRB assay relative to control; format: functional
[2] = system: HeLa; assay: Antiproliferative activity against human HeLa cells assessed as reduction in cell growth by SRB assay; format: functional, cell-based
[3] = system: A549; assay: Cytotoxicity against human A549 cells assessed as proportion of live cells at 10 nM incubated for 24 hrs by PI-staining based flow cytometry analysis (reference value: 90.1 to 90.2%); format: functional
[4] = species on record: Capra hircus; assay: Binding affinity to colchicine binding site of goat brain tubulin assessed as tubulin-compound complex fluorescence intensity at 10 uM preincubated with podophyllotoxin for 30 mins followed by compound addition and measured after 30 mins by fluorescence based analysis
[5] = biological target: T1, Tubulin (Homo sapiens) (UniProt P68371+Q9H4B7+P0DPH7+P68366+Q13509+Q71U36+P04350+Q3ZCM7+P07437+P68363+Q9BQE3+Q6PEY2+Q13885+Q9BVA1+Q9BUF5); assay: Inhibition of tubulin polymerization in human A549 cells assessed as induction of interphase microtubule disorganization at 10 nM measured after 24 hrs by Hoechst-33258 staining based immunofluorescence analysis; format: cell-based
[6] = species on record: Capra hircus; assay: Inhibition of goat brain tubulin polymerization at 5 uM incubated for 10 mins followed by GTP addition and measured for 35 mins by spectrophotometric analysis relative to control; conditions: time 45.0 min
[7] = Cytotoxicity against mouse L929 cells assessed as reduction in cell growth by SRB assay; format: toxicity, cell-based
[8] = system: A549; assay: Induction of cell cycle arrest in human A549 cells assessed as accumulation of cells at S phase at 20 nM incubated for 12 hrs by propidium iodide/RNase-staining based flow cytometry analysis (reference value: 22 +/- 6%); format: functional
[9] = species on record: Capra hircus; assay: Inhibition of goat brain tubulin polymerization assessed as reduction in initial rate of tubulin polymerization incubated for 10 mins followed by GTP addition and measured for 35 mins by spectrophotometric analysis; format: tissue-based; conditions: dose 2-6 µM, time 45.0 min
[10] = biological target: T1, Tubulin (Homo sapiens); assay: Inhibition of tubulin polymerization in human A549 cells assessed as reduction in fluorescence intensity of microtubules at 10 nM measured after 24 hrs by Hoechst-33258 staining based immunofluorescence analysis relative to control; format: cell-based
[11] = species on record: Capra hircus; assay: Inhibition of goat brain tubulin polymerization at 3 uM incubated for 10 mins followed by GTP addition and measured for 35 mins by spectrophotometric analysis relative to control; format: tissue-based; conditions: time 45.0 min
[12] = system: A549; assay: Cytotoxicity against human A549 cells assessed as proportion of live cells at 20 nM incubated for 24 hrs by PI-staining based flow cytometry analysis (reference value: 90.1 to 90.2%); format: functional
[13] = Selectivity index, ratio of IC50 for cytotoxicity against mouse L929 cells to IC50 for antiproliferative activity against mouse B16-F10 cells; format: toxicity, cell-based; conditions: L929 cells versus B16-F10 cells, read-out: Ratio IC50
[14] = system: A549; assay: Cytotoxicity against human A549 cells assessed as proportion of dead cells at 20 nM incubated for 24 hrs by PI-staining based flow cytometry analysis (reference value: 9.8 to 9.9%); format: functional
[15] = system: A549; assay: Induction of cell cycle arrest in human A549 cells assessed as accumulation of cells at S phase at 10 nM incubated for 12 hrs by propidium iodide/RNase-staining based flow cytometry analysis (reference value: 22 +/- 6%); format: functional
[16] = Antiproliferative activity against human H357 cells assessed as reduction in cell growth by SRB assay; format: functional, cell-based
[17] = biological target: T1, Tubulin (Homo sapiens); assay: Inhibition of tubulin polymerization in human A549 cells assessed as induction of interphase microtubule disorganization at 20 nM measured after 24 hrs by Hoechst-33258 staining based immunofluorescence analysis; format: cell-based
[18] = species on record: Capra hircus; assay: Inhibition of goat brain tubulin polymerization at 0.5 uM incubated for 10 mins followed by GTP addition and measured for 35 mins by spectrophotometric analysis relative to control; conditions: time 45.0 min
[19] = system: A549; assay: Antiproliferative activity against human A549 cells assessed as reduction in cell growth by SRB assay; format: functional, cell-based
[20] = biological target: T1, Tubulin (Homo sapiens); assay: Inhibition of tubulin polymerization in human A549 cells assessed as induction of mitotic spindle microtubules depolymerization at 20 nM measured after 24 hrs by Hoechst-33258 staining based immunofluorescence analysis; format: cell-based
[21] = Aqueous stability of the compound in PBS assessed as absorbance at 40 uM measured at pH 7.2 after 20 days by spectrophotometer analysis; format: physicochemical; conditions: time 20 day, read-out: Stability
[22] = system: MCF7; assay: Antiproliferative activity against human MCF7 cells assessed as reduction in cell growth by SRB assay; format: functional, cell-based
[23] = species on record: Capra hircus; assay: Inhibition of goat brain tubulin polymerization at 2 uM incubated for 10 mins followed by GTP addition and measured for 35 mins by spectrophotometric analysis relative to control; conditions: time 45.0 min
[24] = biological target: T1, Tubulin (Homo sapiens); assay: Inhibition of tubulin polymerization in human A549 cells assessed as reduction in fluorescence intensity of microtubules at 20 nM measured after 24 hrs by Hoechst-33258 staining based immunofluorescence analysis relative to control; format: cell-based
[25] = Binding affinity to goat brain tubulin assessed as increase in fluorescence intensity incubated for 30 mins by spectrofluorometric analysis; format: tissue-based, Capra hircus
[26] = system: A549; assay: Induction of cell cycle arrest in human A549 cells assessed as accumulation of cells at G2/M phase at 20 nM incubated for 12 hrs by propidium iodide/RNase-staining based flow cytometry analysis (reference value: 11 +/- 4%); format: functional
[27] = species on record: Capra hircus; assay: Binding affinity to colchicine binding site of goat brain tubulin assessed as tubulin-compound complex fluorescence intensity at 10 uM preincubated with CA-4 for 30 mins followed by compound addition and measured after 30 mins by fluorescence based analysis
[28] = system: B16-F10; assay: Antiproliferative activity against mouse B16-F10 cells assessed as reduction in cell growth by SRB assay; format: functional, cell-based
[29] = system: MDA-MB-231; assay: Antiproliferative activity against human MDA-MB-231 cells assessed as reduction in cell growth by SRB assay; format: functional, cell-based
[30] = species on record: Capra hircus; assay: Inhibition of goat brain tubulin polymerization at 1 uM incubated for 10 mins followed by GTP addition and measured for 35 mins by spectrophotometric analysis relative to control; format: tissue-based; conditions: time 45.0 min
[31] = system: T47D; assay: Antiproliferative activity against human T47D cells assessed as reduction in cell growth by SRB assay; format: functional, cell-based
[32] = biological target: T1, Tubulin (Homo sapiens); assay: Inhibition of tubulin polymerization in human HeLa cells assessed as induction of interphase microtubule depolymerization at 10 to 20 nM measured after 24 hrs by Hoechst-33258 staining based immunofluorescence analysis; format: cell-based; conditions: dose 10-20 nM
[33] = system: A549; assay: Induction of cell cycle arrest in human A549 cells assessed as accumulation of cells at G2/M phase at 10 nM incubated for 12 hrs by propidium iodide/RNase-staining based flow cytometry analysis (reference value: 11 +/- 4%); format: functional
[34] = Inhibition of goat brain tubulin polymerization incubated for 10 mins followed by GTP addition and measured for 35 mins by spectrophotometric analysis; format: tissue-based, Capra hircus
[35] = system: A549; assay: Induction of cell cycle arrest in human A549 cells assessed as accumulation of cells at G1 phase at 20 nM incubated for 12 hrs by propidium iodide/RNase-staining based flow cytometry analysis (reference value: 67 +/- 11%); format: functional
[36] = system: A549; assay: Induction of cell cycle arrest in human A549 cells assessed as accumulation of cells at G1 phase at 10 nM incubated for 12 hrs by propidium iodide/RNase-staining based flow cytometry analysis (reference value: 67 +/- 11%); format: functional
[37] = biological target: T1, Tubulin (Homo sapiens); assay: Inhibition of tubulin polymerization in human HeLa cells assessed as induction of mitotic microtubule depolymerization at 10 to 20 nM measured after 24 hrs by Hoechst-33258 staining based immunofluorescence analysis; format: cell-based; conditions: dose 10-20 nM
[38] = system: A549; assay: Cytotoxicity against human A549 cells assessed as proportion of dead cells at 10 nM incubated for 24 hrs by PI-staining based flow cytometry analysis (reference value: 9.8 to 9.9%); format: functional
[39] = Aqueous stability of the compound in PBS assessed as absorbance at 40 uM measured at pH 7.2 after 24 hrs by spectrophotometer analysis; format: physicochemical; conditions: read-out: Stability

Compound: COc1cc(-c2nc(N)[nH]c2-c2cnc3ccc(Cl)cc3c2)cc(OC)c1OC
- inhibition at 0.025 µM [1]: 11%

Compound: COc1cc(-c2nc(N)[nH]c2-c2cncc3ccccc23)cc(OC)c1OC
- IC50 [2]: 41 nM
- inhibition at 0.025 µM [1]: 47%

Compound: COc1cc(-c2nc(N)[nH]c2-c2ccc3nc(C)ccc3c2)cc(OC)c1OC
- inhibition at 0.025 µM [1]: 5%

Compound: COc1cc(-c2nc(N)[nH]c2-c2ccc3ccccc3n2)cc(OC)c1OC
- IC50 [2]: 10 nM
- inhibition at 0.025 µM [1]: 74%
- Activity [3]: 76.7%
- Activity [4]: inactive
- inhibition [5]: Active
- inhibition [6]: 75%
- IC50 [7]: 69 nM
- Activity [8]: 19%
- inhibition [9]: Dose-Dependent Effect
- inhibition [10]: 23.6%
- inhibition [11]: 45%
- Activity [12]: 62.7%
- selectivity ratio [13]: 2.76
- Activity [14]: 35.9%
- Activity [15]: 20%
- IC50 [16]: 15 nM
- inhibition [17]: Active
- inhibition [18]: 8%
- IC50 [19]: 12 nM
- inhibition [20]: Active
- remaining at 480 h, 40 µM [21]: 47%
- IC50 [22]: 20 nM
- inhibition [23]: 28%
- inhibition [24]: 53.2%
- Kd [25]: 5000 nM
- Activity [26]: 44%
- Activity [27]: inactive
- IC50 [28]: 25 nM
- IC50 [29]: 13 nM
- inhibition [30]: 11%
- IC50 [31]: 47 nM
- inhibition [32]: Active
- Activity [33]: 29%
- IC50 [34]: 3400 nM
- Activity [35]: 37%
- Activity [36]: 51%
- inhibition [37]: Active
- Activity [38]: 22%

Compound: COc1ccc(/C=C\c2cc(OC)c(OC)c(OC)c2)cc1O [COMBRETASTATIN A4]
- IC50 [2]: 24 nM
- inhibition at 0.025 µM [1]: 57%
- IC50 [7]: 117 nM
- Activity [8]: 18%
- Activity [12]: 90.4%
- Activity [14]: 7.37%
- IC50 [16]: 3.5 nM
- IC50 [19]: 43 nM
- IC50 [22]: 24 nM
- Activity [26]: 17%
- IC50 [28]: 82 nM
- IC50 [29]: 100 nM
- IC50 [31]: 407 nM
- remaining at 24 h, 40 µM [39]: 47%
- Activity [35]: 65%

Compound: COc1cc(-c2nc(N)[nH]c2-c2ccc3cnccc3c2)cc(OC)c1OC
- IC50 [2]: 46 nM
- inhibition at 0.025 µM [1]: 46%

Compound: COc1cc(-c2nc(N)[nH]c2-c2cnc3ccc(C)cc3c2)cc(OC)c1OC
- inhibition at 0.025 µM [1]: 8%

Compound: COc1cc(-c2nc(N)[nH]c2-c2cccc3ncccc23)cc(OC)c1OC
- inhibition at 0.025 µM [1]: 27%

Compound: COc1cc(-c2nc(N)[nH]c2-c2ccnc3cc(Cl)ccc23)cc(OC)c1OC
- inhibition at 0.025 µM [1]: 11%

Compound: COc1cc(-c2nc(N)[nH]c2-c2cccc3cccnc23)cc(OC)c1OC
- inhibition at 0.025 µM [1]: 32%

Compound: COc1cc(-c2nc(N)[nH]c2-c2ccc3ccccc3c2)cc(OC)c1OC
- inhibition at 0.025 µM [1]: 34%

Compound: COc1cc(-c2nc(N)[nH]c2-c2ccnc3ccccc23)cc(OC)c1OC
- inhibition at 0.025 µM [1]: 7%

Compound: COc1cc(-c2nc(N)[nH]c2-c2cccc3cnccc23)cc(OC)c1OC
- inhibition at 0.025 µM [1]: 43%

Compound: COc1ccc2ncc(-c3[nH]c(N)nc3-c3cc(OC)c(OC)c(OC)c3)cc2c1
- inhibition at 0.025 µM [1]: 30%

Compound: COc1cc(-c2nc(N)[nH]c2-c2ccc3ncccc3c2)cc(OC)c1OC
- inhibition at 0.025 µM [1]: 9%
